According to ChEMBL document CHEMBL1777736, “New indole amide derivatives as potent CRTH2 receptor antagonists” (Bioorg Med Chem Lett, 2011):

How the values were obtained:
in vivo [1] = details: Sprague-Dawley, rat, iv, 1 mg/kg
in vivo [2] = details: Sprague-Dawley, rat, po, 5 mg/kg
in vivo [3] = details: Sprague-Dawley, rat, iv, 1 mg/kg; remark: listed apart in the source
in vivo [4] = details: Sprague-Dawley, rat

| Vd (in vivo [1]) [L/kg] | bioavailability (in vivo [2]) [%] | clearance (in vivo [3]) [mL/min/kg] | half-life (in vivo [4]) [h] | SMILES |
| --- | --- | --- | --- | --- |
| 0.36 | 73 | 1.1 | 4.7 | C[C@@H](C(=O)N(C)[C@@H]1CCc2c(CC(=O)O)c3ccccc3n2C1)c1ccc(F)cc1 |
| 1.1 | 138 |  |  | CN([C@@H]1CCc2c(CC(=O)O)c3ccccc3n2C1)S(=O)(=O)c1ccc(F)cc1 [MK-7246] |
